Source: PMC9065575, “Synthesis, computational studies, antimycobacterial and antibacterial properties of pyrazinoic acid–isoniazid hybrid conjugates” (RSC Advances, 2019)
Where “and” joins values, the source holds several entries; their conditions need not be identical. Identical values can stand only once. Like-named read-outs stand apart in the source and are kept apart here.

What was measured:
[1] = system: Staphylococcus aureus; experiment: Aerobic antibacterial MIC, standard dilution technique; type: cell-based; conditions: clinical isolate, read-out: Minimum inhibitory concentration (MIC) Staphylococcus aureus
Excerpt: (§1) Antibacterial properties were investigated for the synthesized compounds against a variety of Gram-positive (Staphylococcus aureus, Enterococcus faecalis) and Gram-negative (Klebsiella pneumonia, Proteus vulgaris, Pseudomonas aeruginosa) clinical isolate bacteria utilizing the standard technique.[21]

[2] = system: Proteus vulgaris; experiment: as above; type: cell-based; conditions: clinical isolate, read-out: Minimum inhibitory concentration (MIC) Proteus vulgaris
Excerpt: as §1

[3] = system: Klebsiella pneumoniae; experiment: as above; type: cell-based; conditions: clinical isolate, read-out: Minimum inhibitory concentration (MIC) Klebsiella pneumoniae
Excerpt: as §1

[4] = system: Enterococcus faecalis; experiment: as above; type: cell-based; conditions: Enterococcus faecalis, clinical isolate, read-out: Minimum inhibitory concentration (MIC) Enterococcus faecalis
Excerpt: as §1

[5] = system: Pseudomonas aeruginosa; experiment: as above; type: cell-based; conditions: clinical isolate, read-out: Minimum inhibitory concentration (MIC) Pseudomonas aeruginosa
Excerpt: as §1

[6] = system: Mycobacterium bovis; experiment: microbe, parasite or virus in culture; type: cell-based; conditions: for MIC: Mycobacterium tuberculosis variant bovis, read-out: Minimum inhibitory concentration (MIC) M. bovis; for potency relative to the standard references (M. bovis MIC): vs INH and PZA
[7] = system: M. tuberculosis Erdman strain expressing luciferase; experiment: microbe, parasite or virus in culture; type: cell-based, Mycobacterium tuberculosis; conditions: for inhibition at 30 µg/mL: Mycobacterium tuberculosis, ERDMAN, 168 h, 30 μg mL^−1, pH 7.0, 7 days, vs untreated controls, read-out: Observed % growth inhibition at 30 µg/mL
[8] = system: Mycobacterium marinum; experiment: microbe, parasite or virus in culture; type: cell-based; conditions: clinical isolate, read-out: Minimum inhibitory concentration (MIC) M. marinum
[9] = system: Mycobacterium fortuitum; experiment: microbe, parasite or virus in culture; type: cell-based; conditions: Mycolicibacterium fortuitum
[10] = system: RPE1 (normal human immortalized retinal epithelial) cell line; experiment: Antiproliferative properties by MTT technique; type: cell-based; conditions: RPE1 cells, 100 μM
Description: Antiproliferative properties of the synthesized compounds were screened against RPE1 (normal human immortalized retinal epithelial) cell line to determine the toxicity/selectivity towards normal cell by the standard MTT technique.[23]
Antiproliferative properties of the synthesized compounds were tested against RPE1 (normal human immortalized retinal epithelial) cell line at 100 μM to determine the toxicity/selectivity towards normal cell by the standard MTT technique.[23]

[11] = clinical isolate, observed MIC, read-out: Minimum inhibitory concentration (MIC) M. fortuitum
[12] = clinical isolate, read-out: Minimum inhibitory concentration (MIC) M. fortuitum
[13] = M. fortuitum, observed values listed with the BMLR-QSAR model, read-out: Observed MIC (Table S6)

Structure (SMILES) | MIC [1] [µg/mL] | MIC [2] [µg/mL] | MIC [3] [µg/mL] | MIC [4] [µg/mL] | MIC [5] [µg/mL] | MIC ([5]; value in parentheses) [µM] | MIC ([1]; value in parentheses) [µM] | MIC ([2]; value in parentheses) [µM] | MIC ([3]; value in parentheses) [µM] | MIC ([4]; value in parentheses) [µM] | MIC [6] | MIC ([8]; observed MIC) [µM] | MIC [8] [µg/mL] | MIC [9, 11] [µM] | MIC [9, 12] [µg/mL] | further results
O=C(NNC(=O)c1cnccn1)c1ccncc1 [C00018] | 8 | 64 | 8 | 16 | 0.03 | 0.12 |  |  |  |  |  |  |  |  |  | 
CC(C)C[C@H](NC(=O)c1cnccn1)C(=O)NNC(=O)c1ccncc1 [C00011] | 2 | 0.06 | 4 | 0.03 | 64 | 180 | 5.61 | 0.17 | 11.2 | 0.08 |  |  |  |  |  | 
NNC(=O)c1ccncc1 [INH, isoniazid] |  |  |  |  |  |  |  |  |  |  | 146 µM and 20 µg/mL | 72.9 | 10 | 146 | 20 | inhibition at 30 µg/mL [7]: > 70%
CSCC[C@H](NC(=O)c1cnccn1)C(=O)NNC(=O)c1ccncc1 [C00014] | 64 | 0.06 | 4 | 0.03 | 0.12 | 0.32 | 171 | 0.16 | 10.7 | 0.08 |  |  |  |  |  | 
CC[C@@H](C)[C@H](NC(=O)c1cnccn1)C(=O)O [C00006] | 16 | 0.06 | 8 | 0.03 | 0.12 | 0.51 | 67.4 | 0.25 | 33.7 | 0.13 |  |  |  |  |  | 
O=C(NNC(=O)c1cnccn1)c1ccncc1 [compound 13, N′-Isonicotinoylpyrazine-2-carbohydrazide] |  |  |  |  |  |  | 32.9 | 263 | 32.9 | 65.8 | 82.2 µM and 20 µg/mL | 41.1 | 10 | 41.1 | 10 | potency relative to the standard references (M. bovis MIC) [6]: 1.8–2.0 folds; Percentage of cell proliferation ± SD [10]: 88.2 ± 5.1%; growth inhibition at 3 μg mL^−1 ([7]; 3 μg mL^−1, pH 7.0, compared with INH (>70% at 30 μg mL^−1)): same growth inhibition; inhibition at 30 µg/mL [7]: 90.1%; MIC [9, 13]: 41100 µM
CSCC[C@H](NC(=O)c1cnccn1)C(=O)O [C00007] | 16 | 0.06 | 64 | 0.03 | 0.12 | 0.47 | 62.7 | 0.24 | 251 | 0.12 |  |  |  |  |  | 
NNC(=O)c1ccncc1 [C00002] | 64 | 64 | 8 | 16 | 64 | 467 | 467 | 467 | 58.3 | 117 |  |  |  |  |  | 
O=C(NC(Cc1ccccc1)C(=O)O)c1cnccn1 (racemic) [10f, (Pyrazine-2-carbonyl)-DL-phenylalanine] |  |  |  |  |  |  |  |  |  |  | > 20 µg/mL and > 73.7 µM | 73.7 | 20 | > 73.7 | > 20 | Percentage of cell proliferation ± SD [10]: 86.5 ± 4.2%
NC(=O)c1cnccn1 [C00001] | 1020 | 8 | 64 | 0.12 | 4 | 32.5 | 8320 | 65 | 520 | 0.97 |  |  |  |  |  | 
O=C(NNC(=O)c1ccncc1)c1ccncc1 [compound 16, N′-Isonicotinoylisonicotinohydrazide] |  |  |  |  |  |  | 16.5 | 0.12 | 16.5 | 66 | 82.6 µM and 20 µg/mL | 82.6 | 20 | 82.6 | 20 | potency relative to the standard references (M. bovis MIC) [6]: 1.8–2.0 folds; Percentage of cell proliferation ± SD [10]: 83.5 ± 7.4%; inhibition at 30 µg/mL [7]: 78.1%; MIC [9, 13]: 82600 µM
CSCC[C@H](NC(=O)c1cnccn1)C(=O)NNC(=O)c1ccncc1 [12d, (S)-N-(1-(2-Isonicotinoylhydrazineyl)-4-(methylthio)-1-oxobutan-2-yl)pyrazine-2-carboxamide] |  |  |  |  |  |  |  |  |  |  | > 20 µg/mL and > 53.4 µM | 26.7 | 10 | 53.4 | 20 | melting point: 145 to 147 °C; MIC [9, 13]: 53400 µM
